System: hemoglobin-haptoglobin complex
Assay: Stability of hemoglobin (as hemoglobin-haptoglobin complex) in samples preserved at 37° C. in preservation solution containing 1 unit/L haptoglobin, Hb measured by latex agglutination method (Examples 1 to 7)
Parameters: species or system human
Conditions: for Hb concentration / Recovery ratio with respect to Hb concentration after 0 days / Recovery ratio with respect to Hb after 0 days: 37° C.
In short: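 Latex agglutination (anti-human hemoglobin rabbit polyclonal latex) measured Hb in samples stored at 37 °C up to 21 days; values expressed as % recovery versus day 0. Preservation solution: HEPES 40 mmol/L pH 6.8, BSA 0.1%, NaN3 0.1%, haptoglobin 1 unit/L, phenylboronic acid 0–100 mmol/L, optional sugars; ~300 µg/L Hb, 0.5% feces or none.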

[1] = Feces 3, sugar 50 mmol/L + phenylboronic acid 15 mmol/L, 7 days
[2] = Feces 3, sugar 50 mmol/L + phenylboronic acid 15 mmol/L, 14 days
[3] = Feces 3, sugar 50 mmol/L + phenylboronic acid 15 mmol/L, 21 days
[4] = Feces 3, sugar 100 mmol/L + phenylboronic acid 0.5 mmol/L, 0 days
[5] = Feces 3, sugar 100 mmol/L + phenylboronic acid 0.5 mmol/L, 7 days
[6] = Feces 3, sugar 100 mmol/L + phenylboronic acid 0.5 mmol/L, 14 days
[7] = Feces 3, sugar 100 mmol/L + phenylboronic acid 15 mmol/L, 0 days
[8] = Feces 3, sugar 100 mmol/L + phenylboronic acid 15 mmol/L, 0 days (Table 7)
[9] = Feces 3, sugar 100 mmol/L + phenylboronic acid 15 mmol/L, 7 days
[10] = Feces 3, sugar 100 mmol/L + phenylboronic acid 15 mmol/L, 7 days (Table 7)
[11] = Feces 3, sugar 100 mmol/L + phenylboronic acid 15 mmol/L, 14 days
[12] = Feces 3, sugar 100 mmol/L + phenylboronic acid 15 mmol/L, 14 days (Table 7)
[13] = Feces 3, sugar 100 mmol/L + phenylboronic acid 15 mmol/L, 21 days
[14] = Feces 3, sugar 100 mmol/L + phenylboronic acid 50 mmol/L, 0 days
[15] = Feces 3, sugar 100 mmol/L + phenylboronic acid 50 mmol/L, 7 days
[16] = Feces 3, sugar 100 mmol/L + phenylboronic acid 50 mmol/L, 14 days
[17] = Feces 3, sugar 100 mmol/L, no phenylboronic acid, 0 days
[18] = Feces 3, sugar 100 mmol/L, no phenylboronic acid, 7 days
[19] = Feces 3, sugar 100 mmol/L, no phenylboronic acid, 14 days
[20] = Feces 3, sugar 100 mmol/L, no phenylboronic acid, 21 days
[21] = No feces, sugar 50 mmol/L + phenylboronic acid 15 mmol/L, 0 days
[22] = No feces, sugar 50 mmol/L + phenylboronic acid 15 mmol/L, 7 days
[23] = No feces, sugar 50 mmol/L + phenylboronic acid 15 mmol/L, 14 days
[24] = No feces, sugar 50 mmol/L + phenylboronic acid 15 mmol/L, 21 days
[25] = No feces, sugar 100 mmol/L + phenylboronic acid 0.5 mmol/L, 0 days
[26] = No feces, sugar 100 mmol/L + phenylboronic acid 0.5 mmol/L, 7 days
[27] = No feces, sugar 100 mmol/L + phenylboronic acid 0.5 mmol/L, 14 days
[28] = No feces, sugar 100 mmol/L + phenylboronic acid 15 mmol/L, 0 days
[29] = No feces, sugar 100 mmol/L + phenylboronic acid 15 mmol/L, 0 days (Table 7)
[30] = No feces, sugar 100 mmol/L + phenylboronic acid 15 mmol/L, 7 days
[31] = No feces, sugar 100 mmol/L + phenylboronic acid 15 mmol/L, 7 days (Table 7)
[32] = No feces, sugar 100 mmol/L + phenylboronic acid 15 mmol/L, 14 days
[33] = No feces, sugar 100 mmol/L + phenylboronic acid 15 mmol/L, 14 days (Table 7)
[34] = No feces, sugar 100 mmol/L + phenylboronic acid 15 mmol/L, 21 days
[35] = No feces, sugar 100 mmol/L + phenylboronic acid 50 mmol/L, 0 days
[36] = No feces, sugar 100 mmol/L + phenylboronic acid 50 mmol/L, 7 days
[37] = No feces, sugar 100 mmol/L + phenylboronic acid 50 mmol/L, 14 days
[38] = No feces, sugar 100 mmol/L, no phenylboronic acid, 0 days
[39] = No feces, sugar 100 mmol/L, no phenylboronic acid, 7 days
[40] = No feces, sugar 100 mmol/L, no phenylboronic acid, 14 days
[41] = No feces, sugar 100 mmol/L, no phenylboronic acid, 21 days

Question: With `OC[C@@H](O)[C@@H](O)[C@H](O)[C@@H](O)CO` [Sorbitol, sorbitol] as the molecule, how does the Hb concentration [1] read?
Answer: 250 µg/L

Question: And the “Recovery ratio with respect to Hb concentration after 0 days” value [1]?
Answer: 88%

Question: What about the Hb concentration [2] of the same molecule?
Answer: 235 µg/L

Question: And the “Recovery ratio with respect to Hb concentration after 0 days” value [2]?
Answer: 83%

Question: And the Hb concentration [3]?
Answer: 223 µg/L

Question: And the “Recovery ratio with respect to Hb concentration after 0 days” value [3]?
Answer: 79%

Question: What about the Hb concentration [4] of the same molecule?
Answer: 294 µg/L

Question: And the “Recovery ratio with respect to Hb after 0 days” value [4]?
Answer: 100%

Question: And the Hb concentration [5]?
Answer: 163 µg/L

Question: And the “Recovery ratio with respect to Hb after 0 days” value [5]?
Answer: 55%

Question: And the Hb concentration [6]?
Answer: 145 µg/L

Question: What about the “Recovery ratio with respect to Hb after 0 days” value [6] of the same molecule?
Answer: 49%

Question: What about the Hb concentration [7] of the same molecule?
Answer: 278 µg/L

Question: What about the “Recovery ratio with respect to Hb concentration after 0 days” value [7] of the same molecule?
Answer: 100%

Question: What about the Hb concentration [8] of the same molecule?
Answer: 292 µg/L

Question: What about the “Recovery ratio with respect to Hb after 0 days” value [8] of the same molecule?
Answer: 100%

Question: What about the Hb concentration [9] of the same molecule?
Answer: 244 µg/L

Question: And the “Recovery ratio with respect to Hb concentration after 0 days” value [9]?
Answer: 88%

Question: And the Hb concentration [10]?
Answer: 246 µg/L

Question: What about the “Recovery ratio with respect to Hb after 0 days” value [10] of the same molecule?
Answer: 84%

Question: And the Hb concentration [11]?
Answer: 226 µg/L

Question: And the “Recovery ratio with respect to Hb concentration after 0 days” value [11]?
Answer: 81%

Question: And the Hb concentration [12]?
Answer: 233 µg/L

Question: What about the “Recovery ratio with respect to Hb after 0 days” value [12] of the same molecule?
Answer: 80%

Question: And the Hb concentration [13]?
Answer: 219 µg/L

Question: What about the “Recovery ratio with respect to Hb concentration after 0 days” value [13] of the same molecule?
Answer: 79%

Question: What about the Hb concentration [14] of the same molecule?
Answer: 273 µg/L

Question: And the “Recovery ratio with respect to Hb after 0 days” value [14]?
Answer: 100%

Question: What about the Hb concentration [15] of the same molecule?
Answer: 247 µg/L

Question: What about the “Recovery ratio with respect to Hb after 0 days” value [15] of the same molecule?
Answer: 90%

Question: And the Hb concentration [16]?
Answer: 230 µg/L

Question: And the “Recovery ratio with respect to Hb after 0 days” value [16]?
Answer: 84%

Question: And the Hb concentration [17]?
Answer: 278 µg/L

Question: And the “Recovery ratio with respect to Hb concentration after 0 days” value [17]?
Answer: 100%

Question: And the Hb concentration [18]?
Answer: 98 µg/L

Question: What about the “Recovery ratio with respect to Hb concentration after 0 days” value [18] of the same molecule?
Answer: 35%

Question: What about the Hb concentration [19] of the same molecule?
Answer: 62 µg/L

Question: And the “Recovery ratio with respect to Hb concentration after 0 days” value [19]?
Answer: 22%

Question: And the Hb concentration [20]?
Answer: 56 µg/L

Question: What about the “Recovery ratio with respect to Hb concentration after 0 days” value [20] of the same molecule?
Answer: 20%

Question: And the Hb concentration [21]?
Answer: 281 µg/L

Question: What about the “Recovery ratio with respect to Hb concentration after 0 days” value [21] of the same molecule?
Answer: 100%

Question: And the Hb concentration [22]?
Answer: 261 µg/L

Question: What about the “Recovery ratio with respect to Hb concentration after 0 days” value [22] of the same molecule?
Answer: 93%

Question: What about the Hb concentration [23] of the same molecule?
Answer: 251 µg/L

Question: And the “Recovery ratio with respect to Hb concentration after 0 days” value [23]?
Answer: 89%

Question: What about the Hb concentration [24] of the same molecule?
Answer: 265 µg/L

Question: What about the “Recovery ratio with respect to Hb concentration after 0 days” value [24] of the same molecule?
Answer: 94%

Question: What about the Hb concentration [25] of the same molecule?
Answer: 291 µg/L

Question: What about the “Recovery ratio with respect to Hb after 0 days” value [25] of the same molecule?
Answer: 100%

Question: And the Hb concentration [26]?
Answer: 277 µg/L

Question: And the “Recovery ratio with respect to Hb after 0 days” value [26]?
Answer: 95%

Question: What about the Hb concentration [27] of the same molecule?
Answer: 273 µg/L

Question: And the “Recovery ratio with respect to Hb after 0 days” value [27]?
Answer: 94%

Question: What about the Hb concentration [28] of the same molecule?
Answer: 276 µg/L

Question: What about the “Recovery ratio with respect to Hb concentration after 0 days” value [28] of the same molecule?
Answer: 100%

Question: What about the Hb concentration [29] of the same molecule?
Answer: 288 µg/L

Question: And the “Recovery ratio with respect to Hb after 0 days” value [29]?
Answer: 100%

Question: What about the Hb concentration [30] of the same molecule?
Answer: 252 µg/L

Question: What about the “Recovery ratio with respect to Hb concentration after 0 days” value [30] of the same molecule?
Answer: 91%

Question: And the Hb concentration [31]?
Answer: 274 µg/L

Question: What about the “Recovery ratio with respect to Hb after 0 days” value [31] of the same molecule?
Answer: 95%

Question: What about the Hb concentration [32] of the same molecule?
Answer: 244 µg/L

Question: And the “Recovery ratio with respect to Hb concentration after 0 days” value [32]?
Answer: 88%

Question: What about the Hb concentration [33] of the same molecule?
Answer: 268 µg/L

Question: And the “Recovery ratio with respect to Hb after 0 days” value [33]?
Answer: 93%

Question: What about the Hb concentration [34] of the same molecule?
Answer: 255 µg/L

Question: And the “Recovery ratio with respect to Hb concentration after 0 days” value [34]?
Answer: 92%

Question: What about the Hb concentration [35] of the same molecule?
Answer: 290 µg/L

Question: What about the “Recovery ratio with respect to Hb after 0 days” value [35] of the same molecule?
Answer: 100%

Question: And the Hb concentration [36]?
Answer: 295 µg/L

Question: What about the “Recovery ratio with respect to Hb after 0 days” value [36] of the same molecule?
Answer: 102%

Question: What about the Hb concentration [37] of the same molecule?
Answer: 293 µg/L

Question: And the “Recovery ratio with respect to Hb after 0 days” value [37]?
Answer: 101%

Question: And the Hb concentration [38]?
Answer: 255 µg/L

Question: What about the “Recovery ratio with respect to Hb concentration after 0 days” value [38] of the same molecule?
Answer: 100%

Question: And the Hb concentration [39]?
Answer: 239 µg/L

Question: What about the “Recovery ratio with respect to Hb concentration after 0 days” value [39] of the same molecule?
Answer: 94%

Question: What about the Hb concentration [40] of the same molecule?
Answer: 235 µg/L

Question: What about the “Recovery ratio with respect to Hb concentration after 0 days” value [40] of the same molecule?
Answer: 92%

Question: What about the Hb concentration [41] of the same molecule?
Answer: 236 µg/L

Question: And the “Recovery ratio with respect to Hb concentration after 0 days” value [41]?
Answer: 93%

Question: And the “recovery ratio of hemoglobin in the sample” value (sugar 100 mmol/L further added to other arylboronic acids (3-CPBA, 3-HPBA, 3-APBA) 15 mmol/L, Feces 1, Feces 2, Feces 3)?
Answer: further improved

Question: What about the “recovery ratio of hemoglobin in the samples containing fecal specimens” value (sugar 100 mmol/L, preservation solutions containing no phenylboronic acid) of the same molecule?
Answer: does not improve

Question: What about the “recovery ratio of hemoglobin in the sample” value (sugar 50 or 100 mmol/L further added to phenylboronic acid 15 mmol/L, Feces 1, Feces 2, Feces 3) of the same molecule?
Answer: remarkably improved

Question: What about the “recovery ratio of hemoglobin in the samples containing feces” value (sugar added to phenylboronic acid 15 mmol/L, Feces 1, Feces 2, Feces 3) of the same molecule?
Answer: improved depending on the added concentration
